Here are results for 30 compounds from PubChem BioAssay (NCI).

What all share (experiment): NCI-60 cell line screen, 48 h
Assay [1] has as its system SN12C renal.
In assay [2] the test system is UO-31 renal.
The subject of assay [3] is OVCAR-3 ovarian.
The subject of assay [4] is OVCAR-5 ovarian.
The subject of assay [5] is SF-268 CNS.
Assay [6] concerns IGROV1 ovarian.
The subject of assay [7] is K-562 leukemia.
For assay [8], the system named is MOLT-4 leukemia.
Assay [9] relates to SR leukemia.
Assay [10] concerns M14 melanoma.

SMILES strings stand for the structures.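 In this assay, cells in 96-well plates receive the compound at five concentrations for 48 hours. Endpoints are linearly interpolated between the surrounding concentrations. The concentration for 50% growth inhibition is given as GI50. The concentration for full growth arrest is given as TGI.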 Where a SMILES comes first, the peptide text is derived from it. The star is where a group is joined. Boc = CC(C)(C)OC(=O)*; OBn = c1ccc(CO*)cc1; Bn = c1ccc(C*)cc1 Bounds are passed on as bounds.

Turning to `Nc1c(Cl)ncnc1NCC1(CO)CCC1`, the TGI in [1], in [2], in assay [3], in [4], in [5] and in assay [6] was more than 100 µM in each case. The TGI in [7], in [8] and in assay [9] was more than 100 µM throughout.

On to `c1ccc(C[P+]2(c3ccccc3)CCCCC2)cc1`, for which the TGI in assay [1], in assay [2], in assay [3], in assay [10], in [4] and in assay [6] was more than 100 µM each time. The TGI in assay [7], in assay [8] and in assay [9] was more than 100 µM in each case.

As for `Cn1c(=O)c2[nH]c(Nc3ccccc3)nc2n(C)c1=O`, the TGI in [1], in assay [10], in assay [5], in assay [6], in assay [7] and in assay [8] was more than 10 µM each time. This compound came in with a TGI in assay [9] of more than 10 µM.

In the case of `O=C(/C=C/c1ccco1)c1ccc(Nc2ccnc3cc(Cl)ccc23)cc1`, the GI50 in assay [1] was more than 100 µM; in [3] it was 4.73 µM; in [10], 70.7 µM; in assay [4], 52 µM; in assay [5] it was more than 100 µM; in assay [6], 15.2 µM. In addition, the results for the GI50 in [7] and in assay [8] were 2.97 µM and 3.18 µM, respectively. Also, the TGI in assay [1], in assay [3], in assay [10], in assay [4], in assay [5] and in assay [6] was more than 100 µM in each case. Also, the TGI in assay [7] and in assay [8] was more than 100 µM each time.

`NC(=O)c1ncn(C2CCC(CP(=O)(O)O)C2)c1N` (stereo unspecified): the TGI in assay [1], in [2], in assay [3], in [10], in assay [4] and in assay [5] was more than 100 µM throughout. The TGI in [6], in assay [8] and in assay [9] was more than 100 µM in each case.

With `COc1c2c(cc3oc(=O)ccc13)OC(C)(C)C=C2`, the TGI in assay [1] was 100 µM; in [2], 73.6 µM; in assay [3] it was more than 125 µM; in [10] it was 48.4 µM; in [5] it was more than 125 µM; in assay [6] it was 75.7 µM. Moreover, the TGI in assay [7] is more than 125 µM; in assay [8] it was 59.1 µM; in [9], 44.6 µM.

Turning to `O=C1CCCn2c3ccccc3c3ccnc1c32`, the TGI in assay [1], in assay [2], in assay [3], in [4], in assay [5] and in [6] was more than 100 µM throughout. The TGI in [7] and in assay [8] was more than 100 µM in each case.

Take `O=C(CSCC(=O)N/N=C/c1ccc(F)cc1)N/N=C/c1ccc(F)cc1`: the TGI in assay [1], in assay [2], in assay [10], in assay [4], in assay [5] and in assay [6] was more than 100 µM each time. The TGI in assay [7] was more than 100 µM; in assay [8], 76.9 µM; in assay [9] it was more than 100 µM.

Regarding `O=C1OS2(OC(=O)c3cccc4cccc2c34)c2ccccc21` (stereo unspecified), the TGI in assay [1], in assay [2], in assay [3], in [10], in [4] and in assay [5] was more than 100 µM each time. The TGI in [6], in [7] and in assay [8] was more than 100 µM throughout.

With `COC(=O)[C@@]12CC3CN(Cc4c1[nH]c1ccccc41)C2CC3=O`, the TGI in assay [1], in [3], in assay [10], in assay [4], in assay [5] and in assay [6] was more than 100 µM throughout. Further, the TGI in assay [7] and in assay [8] was more than 100 µM each time.

For the compound `C=CCn1c(-c2ccc(N=NNc3ccc(-c4n[nH]c(=S)n4CC=C)cc3)cc2)n[nH]c1=S`, the TGI was more than 100 µM in assay [1]; 3.97 µM in assay [2]; more than 100 µM in [10]; more than 100 µM in assay [4]; 21.5 µM in [5]; 15.1 µM in assay [6]. Besides, the TGI in assay [7] is 7.71 µM; in [9], more than 100 µM.

As to `CC(=O)NC1=NC(=O)/C(=C/c2ccc(Cl)cc2Cl)N1C`, the TGI in [2], in assay [3], in assay [10], in [4], in [5] and in assay [6] was more than 100 µM each time. Besides, the TGI in assay [8] was 81.4 µM.

With `O=C1N2CCN=C2c2ccccc2C1(O)c1ccccc1` (stereo unspecified), the TGI in [1], in assay [2], in assay [10], in assay [4], in assay [5] and in assay [6] was more than 100 µM in each case. The TGI in [7], in assay [8] and in assay [9] was more than 100 µM in each case.

As to `CSCC[C@@H](NC(=O)[C@H](CC(C)C)NC(=O)C(Cc1cnc[nH]1)NC(=O)CNC(=O)[C@@H](NC(=O)[C@H](C)NC(=O)[C@H](Cc1cn(C=O)c2ccccc12)NC(=O)[C@H](CCC(N)=O)NC(=O)[C@@H](N)CC(N)=O)C(C)C)C(N)=O` (stereo partly specified), the TGI in assay [1], in [2], in [3], in assay [4], in assay [5] and in assay [6] was more than 100 µM throughout. Moreover, the TGI in assay [7] and in assay [8] was more than 100 µM in each case.

For `COC12OC3(C4OC41)C(C(=O)O[C@H]3CO[Si](C)(C)C(C)(C)C)C2S(=O)(=O)c1ccccc1` (stereo partly specified), the TGI was more than 9.26 µM in [1]; more than 5.18 µM in [2]; more than 100 µM in assay [3]; more than 12.2 µM in assay [4]; 5.03 µM in assay [7]; 3.53 µM in assay [8]. This compound came in with a TGI in [9] of more than 100 µM.

For the compound `COC(=O)c1ccc2c(c1)CC1(C2)Cc2ccc3c(c2C1)CCC3` (stereo unspecified), the TGI in assay [1] was more than 100 µM; in [3], more than 100 µM; in assay [10] it was 13 µM; in assay [4] it was more than 100 µM; in [5], more than 100 µM; in assay [6] it was more than 100 µM. Further, the figures for the TGI in assay [7], in assay [8] and in [9] were more than 100 µM, 37.4 µM and more than 100 µM, respectively.

Turning to `O=C1NC(N2CCOCC2)=N/C1=C\c1ccccc1`, the TGI in assay [1], in [2], in [3], in assay [10], in assay [4] and in [5] was more than 100 µM in each case. Further, the TGI in [6], in [8] and in assay [9] was more than 100 µM in each case.

In the case of `O=C(O)CC(Cc1ccccc1)C(=O)O` (stereo unspecified), the TGI in assay [1], in assay [2], in assay [3], in assay [10], in assay [4] and in [5] was more than 100 µM in each case. The TGI in [6], in [7] and in assay [8] was more than 100 µM each time.

As to `COc1ccc(/C=N/N=C(N)N)c(C(=O)O)c1OC`, the TGI is more than 100 µM in assay [1]; more than 100 µM in [2]; more than 100 µM in [3]; more than 100 µM in assay [10]; more than 100 µM in assay [5]; more than 10 µM in [6]. The TGI in assay [7] and in assay [8] was more than 100 µM each time.

On to `CC12CCC3=C(CSC4=C3CSc3ccccc34)C1=CCCC2=O` (stereo unspecified), for which the TGI in assay [1], in assay [2], in [3], in assay [10], in [4] and in assay [5] was more than 100 µM throughout. The TGI in assay [7], in [8] and in [9] was more than 100 µM in each case.

For `O=c1[nH]nc(Nc2ccccc2)c2nnn(Cc3ccccc3)c12`, the TGI in assay [1], in [2], in assay [10], in [4], in assay [5] and in assay [6] was more than 100 µM in each case. Also, the TGI in assay [7], in assay [8] and in [9] was more than 100 µM throughout.

Take `S=c1sc2ccccc2n1CN1CCN(Cc2ccccc2)CC1`: the TGI in assay [1], in assay [2], in assay [3], in [10], in assay [4] and in [5] was more than 100 µM throughout. For the same compound, the TGI in assay [6], in assay [7] and in [8] was more than 100 µM each time.

Consider `CC(C)CC(NC(=O)C(CCC(=O)OCc1ccccc1)NC(=O)OC(C)(C)C)C(=O)NC(COCc1ccccc1)C(=O)NC(Cc1ccccc1)C(=O)O` (stereo unspecified) (Boc-E(OBn)LS(Bn)F-OH; configuration not given here), for which the TGI in [1], in assay [2], in assay [10], in assay [4], in assay [6] and in assay [7] was more than 100 µM each time. For the same compound, the TGI in assay [8] and in [9] was more than 100 µM throughout.

`COc1ccc(NC(=O)c2cc(NC(=O)/C=C/c3ccccc3)c(OC)c(OC)c2)cc1`: the TGI in assay [1] is more than 100 µM; in assay [2], 5.62 µM; in assay [3], more than 100 µM; in [10] it was more than 100 µM; in assay [4], more than 100 µM; in [5] it was more than 100 µM. For the same compound, the TGI in [7], in assay [8] and in assay [9] was more than 100 µM in each case.

On to `C=CCCCN1C(=O)C2C3c4ccccc4C(C=O)(c4ccccc43)C2C1=O` (stereo unspecified), for which the TGI in assay [1] turned out to be 22.2 µM; in [2] it was 26 µM; in assay [3] it was 23.4 µM; in assay [4], 45.1 µM; in assay [5], 59 µM; in assay [6], 65.1 µM. For the same compound, the TGI in assay [7] was 17.8 µM; in [8], 19.4 µM; in [9] it was 18.1 µM.

As to `NC1=CN2c3ccccc3N(CC(=O)N3CCOCC3)C2C=C1` (stereo unspecified), the TGI in assay [1], in [2], in assay [10], in assay [4], in [5] and in assay [6] was more than 100 µM in each case. In addition, the TGI in [7], in assay [8] and in assay [9] was more than 100 µM throughout.

In the case of `N#CCCN(CCN(CCN(C(=O)Nc1ccccc1)c1ccccc1)C(=O)Nc1ccccc1)C(=O)Nc1ccccc1`, the TGI in [1], in assay [2], in assay [3], in assay [10], in assay [4] and in [5] was more than 100 µM throughout. The TGI in assay [6] and in assay [8] was more than 100 µM each time.

On to `Cc1cc2nc(N)n[n+]([O-])c2cc1C`, for which the TGI in assay [1], in [2], in [10], in assay [4], in assay [5] and in [6] was more than 100 µM throughout. Moreover, the TGI in assay [7], in [8] and in assay [9] was more than 100 µM each time.

Take `O=C(/C=C/c1ccccc1O)CC(=O)/C=C/c1ccccc1O`: the TGI was 20.6 µM in assay [1]; 12.6 µM in [2]; 22.3 µM in assay [3]; more than 31.6 µM in assay [10]; 25.7 µM in assay [6]; more than 31.6 µM in assay [7]. Also, the TGI is more than 31.6 µM in assay [8] and more than 25 µM in assay [9].

On to `CC(=O)Nc1ccc(S(=O)(=O)/N=c2/sc(S(N)(=O)=O)nn2C)cc1`, for which the TGI in assay [2], in assay [3], in assay [10], in assay [4], in [5] and in assay [8] was more than 100 µM throughout. This compound had a TGI in assay [9] of more than 100 µM.
